Laboratory results published in patent publication US12410141B2, “Anti-cancer spirocyclic-guanidine compounds and uses thereof” (The Johns Hopkins University, priority 2020, dated 2025).
One block for each compound: values may come before it.

Key:
[1] = under these conditions; reference (34); cited from earlier work
[2] = biological target: T1, 42 kDa cellular protein previously identified as RPN13 (Homo sapiens, UniProt Q16186); assay: Labeling of ES2 cell lysate with biotinylated probes; assay type: binding; conditions: 45 min at 4° C., streptavidin-HRP
T1 construct: endogenous in cells; host or cells: ES2 cell lysate (clarified, in MPER buffer)
T1 sequence (Q16186 whole entry): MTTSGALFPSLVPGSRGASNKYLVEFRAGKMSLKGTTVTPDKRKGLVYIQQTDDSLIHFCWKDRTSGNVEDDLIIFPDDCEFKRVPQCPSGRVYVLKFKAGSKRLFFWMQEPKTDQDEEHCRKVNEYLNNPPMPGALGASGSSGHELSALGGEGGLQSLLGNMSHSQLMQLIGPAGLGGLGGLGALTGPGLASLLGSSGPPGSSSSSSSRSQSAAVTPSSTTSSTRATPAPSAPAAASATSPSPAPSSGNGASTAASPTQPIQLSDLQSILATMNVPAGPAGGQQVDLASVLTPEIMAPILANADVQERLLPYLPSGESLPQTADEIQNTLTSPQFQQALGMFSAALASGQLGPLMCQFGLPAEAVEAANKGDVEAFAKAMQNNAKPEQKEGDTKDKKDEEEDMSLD
Procedure: (§1) ES2 cell lysates were incubated with 20 μM RA190B for 45 min at 4° C., and then separated by SDS-PAGE, transferred to a PVDF membrane.
The lysates were then separated by SDS-PAGE, transferred to a PVDF membrane.

[3] = test system: high molecular weight polyubiquitinated proteins in SKOV3 cells; assay: Western blot for polyubiquitinated proteins, SKOV3 cells; assay type: cell-based; conditions: 12 hr, Up284 and RA475 0.5 and 1 μM, RA190 1 μM
Procedure: Cell lysate (10-20 μg total protein) prepared in MPER (Pierce) from each sample was subjected to SDS-PAGE, transferred to PVDF membranes and analyzed by Western blot using antibodies specific for ubiquitin (P4D1, sc-8017, Santa Cruz), or after stripping antibody for actin (#66009, Protein Tech Group), at the dilutions recommended by the manufacturers, and for secondary antibodies either peroxidase-linked anti-mouse IgG or anti-rabbit IgG (GE Healthcare UK Ltd) were utilized at the recommended dilution. The blots were developed using HyGLO chemiluminescent detection reagent (Denville).
Like RA190, RA475 was designed to be an inhibitor of upstream 19S RP proteasome function. […] Treatment with the same doses of Up284 (0.5 and 1 μM) or 1 μM RA190 provided positive controls, and vehicle alone (DMSO) was used as the negative control. At the end of the incubation, attached cells were lysed using MPER buffer according to the manufacturer's protocol. The lysates were subjected to Western blot analysis using antibody to ubiquitin, and then stripped and re-probed with actin antibody to provide a loading control (FIG. 5).
Proteasome inhibitors cause a rapid accumulation of polyUb proteins that is associated with unresolved UPR stress and the induction of apoptosis. Since RA475 is cytotoxic to ovarian cancer cells (Table 1), and induces such a rapid accumulation of polyUb proteins (FIG. 5), it was examined whether RA475 also triggered apoptosis. SKOV3 cells (FIG. 5A) were treated with Up284 (0.5 μM and 1 μM), 1 μM RA190, RA475 (0.5 μM and 1 μM) or vehicle alone (DMSO) and then cultured for 12 hr. OVCAR3 cells (FIG. 5B) were treated with Up284 (0.5 μM), Bortezomib (Bz, 0.25 μM), Ixazomib (Iz, 0.25 μM), RA475 (0.5 μM and 1 μM) or vehicle alone (DMSO). The attached cells were harvested and their lysates were subjected to Western blot analysis, first probed with antibody to ubiquitin and then to actin.

[4] = biological target: T2, 42 kDa RPN13 (Homo sapiens, UniProt Q16186); assay: RA190B competitive labeling assay in ES2 cell lysate; assay type: binding; conditions: ES2 cell lysate pre-incubated 45 min at 4° C. (bortezomib or Up compounds 5 μM), then RA190B 20 μM
T2 construct: endogenous in cells; host or cells: ES2 cell lysate (clarified, in MPER buffer)
T2 sequence (Q16186 whole entry): as above
Procedure: (§2) Clarified cell lysate (40 ug/sample) in MPER buffer was pretreated with streptavidin-coated magnetic beads for 45 min at 4° C. to deplete non-specific biotinylated proteins in the cell lysate. […] Next, the samples were mixed with Laemmli sample buffer (BioRad) and boiled for 5 min. The proteins were separated using a 4-15% Bio-Rad Mini-PROTEAN SDS-PAGE gel (1 hr at 100 V), and transferred to PVDF membrane overnight at 4° C. (24 V). The membrane was blocked with 5% BSA in PBST for 1 hr at RT and washed for 20 minutes (3× with PBST). Then the membrane was probed with HRP-streptavidin (1:10,000 in PBST) for 1 hr at RT, washed for 30 min (3× with PBST), and developed using HyGLO chemiluminescent detection reagent (Denville) for biotin detection.
as §1

[5] = test system: PEA2; assay: MTT cytotoxicity assay, PEA2; assay type: cell-based; conditions: PEA2, ovarian, 72 hr, read-out: IC50, cell killing
Procedure: (§3) All cell lines were obtained from the American Type Culture Collection (ATCC) and cultured in the specified medium supplemented with 10% fetal bovine serum, 100 IU/mL penicillin, and 100 μg/mL streptomycin at 37° C. in a humidified 5% CO2/95% air incubator. To assess drug cytotoxicity cells were seeded at 2,500 cells/well (10,000 cells/well for MM lines and primary cells) in 100 μL medium in 96-well plate. […]
(§4) It was examined whether the RPN13 inhibitor, RA475, was cytotoxic for cancer cell lines using the MTT assay.

[6] = test system: PEA1; assay: MTT cytotoxicity assay, PEA1; assay type: cell-based; conditions: PEA1, ovarian, 72 hr, read-out: IC50, cell killing
Procedure: as §3, §4

[7] = test system: PACS; assay: MTT cytotoxicity assay, PACS; assay type: cell-based; conditions: ovarian (mouse), 72 hr, read-out: IC50, cell killing
Procedure: as §3, §4

[8] = biological target: T3, 42 kDa cellular protein, consistent with RPN13 (Homo sapiens, UniProt Q16186); assay: Up284B competitive labeling assay in SKOV3 or ES2 cell lysates; assay type: binding; conditions: pre-cleared SKOV3 or ES2 lysates, 45 min at 4° C., then 5 μM Up284B
T3 construct: endogenous in cells; host or cells: SKOV3 or ES2 cell lysates, pre-cleared with streptavidin-coated beads
T3 sequence (Q16186 whole entry): as above
Procedure: as §2
Briefly SKOV3 or ES2 cell lysates were first pre-cleared with streptavidin-coated beads to deplete endogenous biotinylated proteins. The pre-cleared lysates were then divided into equal aliquots. […] The lysates were then boiled in gel sample buffer, separated by SDS-PAGE, and transferred to a PVDF membrane.

Compound: N[C@@H](Cc1ccccc1)C(=O)N1C/C(=C\c2ccc([N+](=O)[O-])cc2)C(=O)/C(=C/c2ccc([N+](=O)[O-])cc2)C1 [RA183]
metabolism under the plasma / liver microsome conditions [1]: rapidly metabolized

Compound: N[C@@H](Cc1ccccc1)C(=O)N1C/C(=C\c2ccc(Cl)c(Cl)c2)C(=O)/C(=C/c2ccc(Cl)c(Cl)c2)C1 [RA190]
accumulation of polyUb proteins [3]: profound accumulation
metabolism under the plasma / liver microsome conditions [1]: rapidly metabolized
competition with binding of RA190B to the 42 kDa RPN13 [4]: competed with the binding of RA190B to the 42 kDa protein

Compound: N#Cc1ccc(/C=C2/C(=O)/C(=C/c3ccc(C#N)cc3)C23CCN(C(=N)N)C3)cc1 [RA477]
IC50 [5]: 312 nM
IC50 [6]: 331 nM
IC50 [7]: 405 nM

Compound: CC(C)C[C@H](NC(=O)[C@H](Cc1ccccc1)NC(=O)c1cnccn1)B(O)O [bortezomib, reference compound]
competition with binding of Up284B probe to RPN13 [8]: not competed
competition with binding of RA190B to the 42 kDa RPN13 [4]: neither the vehicle (DMSO) nor bortezomib (negative controls) competed

The next lines start with the values.

binding of biotinylated probe to the 42 kDa cellular protein [2]: bound to the 42 kDa cellular protein
Compound: O=C(CCCC[C@@H]1SCC2NC(=O)NC21)N[C@@H](Cc1ccccc1)C(=O)N1C/C(=C\c2ccc(Cl)c(Cl)c2)C(=O)/C(=C/c2ccc(Cl)c(Cl)c2)C1 (some centres unmarked) [RA190B]

competition with binding of RA190B to the 42 kDa RPN13 [4]: competed
Compound: C=CC(=O)N1CCC2(CC1)/C(=C\c1ccc(C#N)cc1)C(=O)/C2=C/c1ccc(C#N)cc1 [Up285]
